Laboratory results from patent US20070167628A1, “Thiazole-2-carboxamide derivatives for use as hippar agonists in the treatment of i.a. dyslipidemia” (priority 2003, published 2007).

How the values were obtained:
Type in all cases: cell-based
Settings in all cases: SPAP reporter
HPPARα = target: T1, HPPARα (Homo sapiens, UniProt Q07869); assay: Transient transfection (transactivation) assay, hPPAR alpha-GAL4 chimera in CV-1 cells
T1 construct: expressed in transfected cells; host or cells: CV-1 cells
T1 sequence (Q07869 239-466 limits assumed): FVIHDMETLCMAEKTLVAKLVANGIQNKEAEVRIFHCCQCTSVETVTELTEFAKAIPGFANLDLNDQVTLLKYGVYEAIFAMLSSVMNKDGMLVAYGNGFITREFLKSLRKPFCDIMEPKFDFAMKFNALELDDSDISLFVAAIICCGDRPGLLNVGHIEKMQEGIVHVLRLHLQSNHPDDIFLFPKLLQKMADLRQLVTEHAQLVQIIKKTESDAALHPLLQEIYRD
Excerpt: (§1) Compounds were screened for functional potency in transient transfection assays in CV-1 cells for their ability to activate the PPAR subtypes (transactivation assay). A previously established chimeric receptor system was utilized to allow comparison of the relative transcriptional activity of the receptor subtypes on the same target gene and to prevent endogenous receptor activation from complicating the interpretation of results. See, for example, Lehmann, J. M.; Moore, L. B.; Smith-Oliver, T. A.; Wilkison, W. O.; Willson, T. M.; Kliewer, S. A., An antidiabetic thiazolidinedione is a high affinity ligand for peroxisome proliferator-activated receptor gamma (PPARgamma), J. Biol. Chem., 270, 12953-6 (1995). The ligand binding domains for murine and human PPAR alpha, PPAR gamma, and PPAR delta were each fused to the yeast transcription factor GAL4 DNA binding domain. CV-1 cells were transiently transfected with expression vectors for the respective PPAR chimera along with a reporter construct containing five copies of the GAL4 DNA binding site driving expression of secreted placental alkaline phosphatase (SPAP) and beta-galactosidase. After 16 h, the medium was exchanged to DME medium supplemented with 10% delipidated fetal calf serum and the test compound at the appropriate concentration. […]

HPPARδ = target: T2, HPPARδ (Homo sapiens, UniProt Q03181); assay: Transient transfection (transactivation) assay, hPPAR delta-GAL4 chimera in CV-1 cells
T2 construct: expressed in transfected cells; host or cells: CV-1 cells
T2 sequence (Q03181 211-439 limits assumed): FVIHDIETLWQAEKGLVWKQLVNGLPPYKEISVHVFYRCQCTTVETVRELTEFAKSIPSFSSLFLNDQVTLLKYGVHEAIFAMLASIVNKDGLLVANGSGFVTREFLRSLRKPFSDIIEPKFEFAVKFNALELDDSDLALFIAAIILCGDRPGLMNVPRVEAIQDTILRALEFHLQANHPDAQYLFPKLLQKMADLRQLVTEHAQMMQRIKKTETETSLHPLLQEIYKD
Excerpt: as §1

HPPARγ = target: T3, HPPARγ (Homo sapiens, UniProt P37231); assay: Transient transfection (transactivation) assay, hPPAR gamma-GAL4 chimera in CV-1 cells
T3 construct: expressed in transfected cells; host or cells: CV-1 cells
T3 sequence (P37231 238-503 limits assumed): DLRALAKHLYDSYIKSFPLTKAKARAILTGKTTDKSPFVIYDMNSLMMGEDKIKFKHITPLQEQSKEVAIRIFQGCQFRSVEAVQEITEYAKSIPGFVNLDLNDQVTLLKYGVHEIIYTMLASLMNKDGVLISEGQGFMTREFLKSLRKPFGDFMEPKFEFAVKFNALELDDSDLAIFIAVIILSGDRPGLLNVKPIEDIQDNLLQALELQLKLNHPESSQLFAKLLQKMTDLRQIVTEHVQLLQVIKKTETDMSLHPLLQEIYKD
Excerpt: as §1

EC50 (HPPARα): 0.008 µM
EC50 (HPPARδ): 6.1 µM
EC50 (HPPARγ): 0.19 µM
SMILES: Cc1nc(C(=O)NCc2ccc(OC(C)(C)C(=O)O)cc2)sc1-c1ccc(C(C)C)cc1 [Example 1, 2-methyl-2-[(4-{[({4-methyl-5-[4-(1-methylethyl)phenyl]-1,3-thiazol-2-yl}carbonyl)amino]methyl}phenyl)oxy]propanoic acid]
